Results taken from patent US20210154190A1, “SHP2 INHIBITOR COMPOSITIONS AND METHODS FOR TREATING CANCER” (Revolution Medicines, Inc., priority 2018, published 2021).
Where a chain is given by its changes, count along the chain named. Where “and” joins values, the source holds several entries; their conditions need not be identical. Equal values may be shown once. Read-outs that look alike come from different tables or passages of the source.

Assays:
Format in all cases: biochemical
human SHP2-FL D61G = target: T1, human SHP2-FL D61G (Homo sapiens, UniProt Q06124, D61G); assay: SHP2 allosteric inhibition assay (DiFMUP), D61G; details: for IC50: SHP2 D61G
T1 sequence (Q06124 1-593 D61G): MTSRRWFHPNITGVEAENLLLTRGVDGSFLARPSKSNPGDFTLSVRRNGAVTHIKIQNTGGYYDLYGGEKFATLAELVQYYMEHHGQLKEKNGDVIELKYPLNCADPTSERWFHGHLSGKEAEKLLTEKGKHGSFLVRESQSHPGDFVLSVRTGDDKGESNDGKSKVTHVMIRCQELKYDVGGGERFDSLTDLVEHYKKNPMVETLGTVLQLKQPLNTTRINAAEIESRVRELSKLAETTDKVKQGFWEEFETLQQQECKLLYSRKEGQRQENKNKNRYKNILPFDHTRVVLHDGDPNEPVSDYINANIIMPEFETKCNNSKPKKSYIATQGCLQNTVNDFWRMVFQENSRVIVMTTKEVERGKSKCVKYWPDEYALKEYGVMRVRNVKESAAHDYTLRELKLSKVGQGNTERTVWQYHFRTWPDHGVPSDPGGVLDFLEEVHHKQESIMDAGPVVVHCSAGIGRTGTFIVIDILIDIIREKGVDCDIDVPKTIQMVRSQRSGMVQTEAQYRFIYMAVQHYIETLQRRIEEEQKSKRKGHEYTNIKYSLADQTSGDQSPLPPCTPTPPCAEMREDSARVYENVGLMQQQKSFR
Protocol: (§1) Full-length SHP2 is allosterically activated through binding of bis-tyrosyl-phorphorylated peptides to its Src Homology 2 (SH2) domains. The latter activation step leads to the release of the auto-inhibitory interface of SHP2, which in turn renders the SHP2 protein tyrosine phosphatase (PTP) active and available for substrate recognition and reaction catalysis. The catalytic activity of SHP2 was monitored using the surrogate substrate DiFMUP in a prompt fluorescence assay format.
(§2) […] […] 50 μl stop solution (0.1 mM sodium pervanadate) was added to each well, the plate was shaken briefly to mix, and read in endpoint mode on a SpectraMax M5 plate reader (Molecular Devices) using excitation and emission wavelengths of 340 nm and 450 nm. Data was imported into GraphPad Prism. Plots of fluorescence intensity vs. log Molar [compound] were created and modeled with a 3-parameter sigmoidal concentration response equation in order to estimate IC50.
(§3) Reactions were then allowed to proceed for 30 minutes and stopped by the addition of a phosphatase inhibitor, sodium pervanadate. De-phosphorylation of DiFMUP results in production of a fluorescent product. Product fluorescence was determined and plotted as a function of compound concentration in order to determine the IC50 for each compound on each mutant using a four parameter sigmoidal dose response function in Prism (GraphPad).
(§4) NsCs mimics the role of the cytosolic domain of a protein tyrosine kinase in this model system.

human SHP2-FL L262R = target: T2, human SHP2-FL L262R (Homo sapiens, UniProt Q06124, L262R); assay: SHP2 allosteric inhibition assay (DiFMUP), L262R
T2 sequence (Q06124 1-593 L262R): T1 sequence (Q06124 1-593 D61G) with G61D, L262R
Protocol: as §1, §2, §3, §4

human SHP2-FL S502P = target: T3, human SHP2-FL S502P (Homo sapiens, UniProt Q06124, S502P); assay: SHP2 allosteric inhibition assay (DiFMUP), S502P
T3 sequence (Q06124 1-593 S502P): T1 sequence (Q06124 1-593 D61G) with G61D, S502P
Protocol: as §1, §2, §3, §4

Nc1nc(N2CCC3(CCC[C@H]3N)CC2)cnc1Sc1ccnc(Cl)c1Cl [Compound 1]
IC50 (human SHP2-FL D61G; 0.5 μM NsCs peptide (Activated), read-out: IC50): 0.185 µM and 0.219 µM and 0.198 µM and 0.191 µM
IC50 (human SHP2-FL D61G; 0.5 μM NsCs peptide (Activated), read-out: pIC50 (converted)): 0.186 µM and 0.219 µM and 0.2 µM and 0.191 µM
IC50 (human SHP2-FL D61G; No Peptide Control (Non-Activated), read-out: IC50): 0.00185 µM and 0.00245 µM and 0.0016 µM and 0.00181 µM
IC50 (human SHP2-FL D61G; No Peptide Control (Non-Activated), read-out: pIC50 (converted)): 0.00186 µM and 0.00245 µM and 0.00158 µM and 0.00182 µM
IC50 (human SHP2-FL L262R; IC50 (nM), SHP2 L262R 0.5 μM NsCs peptide (Activated), human SHP2-FL L262R, 0.5 μM NsCs peptide (activated)): 79.4 nM and 62.2 nM and 69.2 nM and 74.6 nM
IC50 (human SHP2-FL L262R; human SHP2-FL L262R alone, no peptide (non-activated), read-out: IC50 (nM), SHP2 L262R No Peptide Control (Non-Activated)): 2.83 nM and 3.37 nM and 2.75 nM and 3.43 nM
IC50 (human SHP2-FL L262R; human SHP2-FL L262R alone, no peptide (non-activated), read-out: pIC50, SHP2 L262R No Peptide Control (Non-Activated) (converted)): 2.82 nM and 3.39 nM and 2.75 nM
IC50 (human SHP2-FL L262R; pIC50, SHP2 L262R 0.5 μM NsCs peptide (Activated), human SHP2-FL L262R, 0.5 μM NsCs peptide (activated)): 79.4 nM and 61.7 nM and 69.2 nM and 74.1 nM
IC50 (human SHP2-FL S502P; IC50 (nM), SHP2 S502P 0.5 μM NsCs peptide (Activated), human SHP2-FL S502P in presence of 0.5 μM NsCs peptide (activated)): > 10000 nM
IC50 (human SHP2-FL S502P; human SHP2-FL S502P alone, no peptide (non-activated), read-out: IC50 (nM), SHP2 S502P No Peptide Control (Non-Activated)): 237 nM and 227 nM and 221 nM and 308 nM
IC50 (human SHP2-FL S502P; human SHP2-FL S502P alone, no peptide (non-activated), read-out: pIC50, SHP2 S502P No Peptide Control (Non-Activated) (converted)): 234 nM and 229 nM and 219 nM and 309 nM
IC50 (human SHP2-FL S502P; pIC50, SHP2 S502P 0.5 μM NsCs peptide (Activated), human SHP2-FL S502P in presence of 0.5 μM NsCs peptide (activated)): > 10000 nM

Cc1nc(N2CCC3(CC2)CO[C@@H](C)[C@H]3N)c(CO)nc1-c1cccc(Cl)c1Cl [Compound B]
Biochemical sensitivity (human SHP2-FL D61G; Variant D61G): yes (Sensitive if IC50 < 2000 nM)
Biochemical sensitivity (human SHP2-FL L262R; Variant L262R): yes (Sensitive if IC50 < 2000 nM)
Biochemical sensitivity (human SHP2-FL S502P; Variant S502P): no (Sensitive if IC50 < 2000 nM)
